As a reminder, the kon is a measure of how fast the partners come together.

The values below come from paper PMC11889964, “Surveying helix 12 dynamics within constitutively active estrogen receptors using bipartite tetracysteine display” (The Journal of Biological Chemistry, 2025).

Numbering of substitutions follows the chain as printed.

Format in all cases: binding
For experiment [1], the target named is T1, ERα-LBD-ΔC4(D538G) (Homo sapiens, UniProt P03372, A546C/C417S/C530A/D538G/E380C/H547C).
T1 construct: pMCSG7 leader with TEV site (ENLYFQ/SNA); made in house; host or cells: E. coli BL21(DE3)
T1 sequence (P03372 with tags, fused parts or gaps E380C/C417S/C530A/D538G/A546C/H547C): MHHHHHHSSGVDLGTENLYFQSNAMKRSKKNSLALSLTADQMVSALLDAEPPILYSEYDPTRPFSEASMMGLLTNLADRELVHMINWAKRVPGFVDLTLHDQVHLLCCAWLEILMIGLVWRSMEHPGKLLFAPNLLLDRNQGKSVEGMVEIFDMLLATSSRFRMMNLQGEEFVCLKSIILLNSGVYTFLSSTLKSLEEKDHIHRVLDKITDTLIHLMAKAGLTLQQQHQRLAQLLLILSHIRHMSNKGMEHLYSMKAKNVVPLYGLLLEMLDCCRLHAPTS
In words: Kinetic FlAsH-ER assay, FlAsH apparent rate constants (kon). The conditions noted are these: 1 μM FlAsH-EDT2, 10 μM protein. As to the method: (§1) Kinetic experiments were performed on 384-well black, flat-bottom plates (catalog no.: 3575; Corning) with wells containing 25 μl total reaction volume. ERα-LBDs (10 μM) were incubated in 25 μl of binding buffer supplemented with 1 mM TCEP overnight at room temperature. […] Aliquots of EDT and FlAsH-EDT2 (1 μl) at respective final concentrations of 10 μM and 1 μM in binding buffer were then added to the samples. The change in fluorescence of each sample was then collected over 6 h with measurements taken at 1 min intervals. Data were collected using a SpectraMax M5e multimode plate reader, with an excitation wavelength of 508 nm and an emission wavelength of 530 nm. The data were processed using Kaleidagraph, version 4.5, and apparent rate constants (kon) were determined through curve fitting using the equation below: Fobs=Fmin+(Fmax−Fmin)(1−e^(−kT)) where Fobs is the observed fluorescence; Fmin is the minimum fluorescence value; Fmax represents the maximum fluorescence value; T is time in minutes; and k is the apparent rate constant.

In experiment [2] the target is T2, ERα-LBD-ΔC4 (Homo sapiens, UniProt P03372, A546C/C417S/C530A/E380C/H547C).
T2 construct: pMCSG7 leader with TEV site (ENLYFQ/SNA); made in house; host or cells: E. coli BL21(DE3)
T2 sequence (P03372 with tags, fused parts or gaps E380C/C417S/C530A/A546C/H547C): T1 sequence (P03372 with tags, fused parts or gaps E380C/C417S/C530A/D538G/A546C/H547C) with G265D
The experiment is described as above. The conditions noted are these: 1 μM FlAsH-EDT2, 10 μM protein. Here is the method:
as §1

Experiment [3] concerns the target T3, ERα-LBD-ΔC4(Y537S) (Homo sapiens, UniProt P03372, A546C/C417S/C530A/E380C/H547C/Y537S).
T3 construct: pMCSG7 leader with TEV site (ENLYFQ/SNA); made in house; host or cells: E. coli BL21(DE3)
T3 sequence (P03372 with tags, fused parts or gaps E380C/C417S/C530A/Y537S/A546C/H547C): T1 sequence (P03372 with tags, fused parts or gaps E380C/C417S/C530A/D538G/A546C/H547C) with Y264S, G265D
Described as above. The conditions noted are these: 1 μM FlAsH-EDT2, 10 μM protein. As to the method: as §1

Experiment [4] deals with T2, ERα-LBD-ΔC4. Briefly: Endpoint fluorescence FlAsH-ER assay. As to conditions: unliganded ERα-LBD-ΔC4; 1 μM FlAsH-EDT2, 6 h. As to the method:
Endpoint fluorescence experiments were performed in triplicate on 384-well black, flat-bottom plates (catalog no.: 3575; Corning) with wells containing 25 μl total reaction volume. The protein (10 μM) was incubated in FlAsH binding buffer (50 mM Tris base, 500 mM KCl, 2 mM DTT, 1 mM EDTA, 1 mM Na3VO4, 10% glycerol, pH 8.0) supplemented with 1 mM TCEP overnight at room temperature. […] Following incubation, 1 μl aliquots of EDT and FlAsH-EDT2 in binding buffer were added at final concentrations of 10 μM and 1 μM, respectively. The reaction mixtures were then allowed to incubate in the dark for 6 h at room temperature. Following incubation, the fluorescence of each sample was measured using a SpectraMax M5e multimode plate reader (Molecular Devices), with an excitation wavelength of 508 nm and an emission wavelength of 530 nm. Data were collected using SoftMax Pro software, version 6.4 (Molecular Devices) and processed using Kaleidagraph, version 4.5 (Synergy).

Experiment [5] addresses T1, ERα-LBD-ΔC4(D538G). Briefly: Titration FlAsH-ER assay, FlAsH apparent equilibrium dissociation constants (Kapp). As to the method: (§2) Titration experiments were performed on 384-well black, flat-bottom plates (catalog no.: 3575; Corning) with wells containing 25 μl total reaction volume^. ERα-LBDs (10 μM) were incubated in 25 μl of binding buffer supplemented with 1 mM TCEP overnight at room temperature. […] The solutions were then transferred to a fresh 384-well black, flat-bottom plate (catalog no.: 3575; Corning) and serially diluted with binding buffer. EDT and FlAsH-EDT2 (1 μl) in binding buffer were then immediately added at final concentrations of 10 μM and 1 μM, respectively. The reactions were then allowed to incubate in the dark for 6 h at room temperature. Fluorescence counts for each sample were then measured using a SpectraMax M5e multimode plate reader, with an excitation wavelength of 508 nm and an emission wavelength of 530 nm. Data were processed using SoftMax Pro software, version 6.4 and Kaleidagraph, version 4.5. The Kapp for each complex was defined by curve fitting using the equation below. Fobs=Fmin+(Fmax−Fmin/2L)(L+P+Kapp−((L+P+Kapp)^2−(4LP))^0.5) where Fobs is the observed fluorescence; P represents the total protein concentration; L is the total concentration of FlAsH-EDT2; Fmin is the minimum fluorescence value; Fmax represents the maximum fluorescence value; and Kapp is the apparent equilibrium dissociation constant.

Experiment [6] concerns the target T2, ERα-LBD-ΔC4. Described as above. Here is the method: as §2
In experiment [7] the target is T3, ERα-LBD-ΔC4(Y537S). Described as above. As to the method:
as §2

For the compound `O=C(O)c1ccccc1-c1c2ccc(=O)c([As]3SCCS3)c-2oc2c([As]3SCCS3)c(O)ccc12` [FlAsH], the kon at ERα-LBD-ΔC4(D538G) [1] (liganded receptor (+10 μM E2)) was 1170 M⁻¹ s⁻¹; at ERα-LBD-ΔC4(D538G) [1] (unliganded receptor (−E2)), 838 M⁻¹ s⁻¹; at ERα-LBD-ΔC4 [2] (liganded receptor (+10 μM E2)), 310 M⁻¹ s⁻¹; at ERα-LBD-ΔC4 [2] (unliganded receptor (−E2)), 447 M⁻¹ s⁻¹; on ERα-LBD-ΔC4(Y537S) [3] (liganded receptor (+10 μM E2)), 900 M⁻¹ s⁻¹; at ERα-LBD-ΔC4(Y537S) [3] (unliganded receptor (−E2)) it was 491 M⁻¹ s⁻¹. For the same compound, the “increase in endpoint fluorescence compared with ERα-LBD-ΔC0” value on ERα-LBD-ΔC4 [4] came out at 10 fold. The Kd stood at 160 ± 60 nM at ERα-LBD-ΔC4(D538G) [5] (liganded receptor (+E2)); 570 ± 370 nM at ERα-LBD-ΔC4(D538G) [5] (unliganded receptor (−E2)); 1220 ± 700 nM on ERα-LBD-ΔC4 [6] (liganded receptor (+E2)); 940 ± 560 nM at ERα-LBD-ΔC4 [6] (unliganded receptor (−E2)); 540 ± 330 nM at ERα-LBD-ΔC4(Y537S) [7] (liganded receptor (+E2)); 900 ± 650 nM on ERα-LBD-ΔC4(Y537S) [7] (unliganded receptor (−E2)).
